Experiments:
sigma-binding site = experiment: 3H-DTG radioligand saturation binding (Scatchard plot) in submaxillary gland membrane homogenate; design: species or system New Zealand white rabbits; details: single binding site; membrane homogenate of acini cells from rabbit submaxillary gland; 4° C., 60 min; spiperone 25 nM
Description: In this procedure, New Zealand white rabbits were sacrificed using 1/2-1 ml of Beuthanasia-D Special (Schering Plough Animal Health, Keniworth, N.J.: 390 mg pentobarital sodium and 50 mg phenytoin sodium per ml) by injecting the preparation into the marginal ear vein. Whole submaxillary glands, free of blood, were dissected and either used immediately or frozen in cold 100 mM tris-HCl (pH 7.4) buffer. Glandular tissue was rinsed with cold 50 mM Tris-HCl (pH 7.4) followed by homogenization for 30 sec (Polytron, Brinkman Instr., setting 7). The homogenate was centrifuged at 800 rpm for 10 min at 4° C. to remove extraneous tissue. Then the supernatant was centrifuged at 75,000 Xg for 15 min at 4° C. (model L8-55, Preparative Ultracentrifuge, Beckman Instruments, Fullerton, Calif.). Following centrifugation, the pellet was homogenized again in 100 mM tris-HCl buffer and centrifuged at 75,000 Xg for 15 min. The resulting pellet containing the membrane fragments was suspended in Tris-HCl buffer to yield a concentration of 250 mg (wet wt) per mL. […]
Spiperone (25 nM) was added to prevent binding to D2 dopamine or 5HT2 serotonin receptors. […] The filter, containing the precipitate, was transferred to a scintillation vial containing 1 mL of tissue solubilizer (Soluene 350, Packard Inst.) and 4 mL of scintillation fluid (Budget Solve , Fisher Scientific, Fair Lawn, N.J.) and counted (Beckman LS 3801). […]

sigma receptors = experiment: Radioligand competition experiments in submaxillary gland membrane homogenate; assay type: binding, New Zealand white rabbits; details: radioligand 3H-DTG (5 nM); rabbit submaxillary gland membranes; 4° C., 60 minutes; spiperone 25 nM; mean ± spread; read-out: averaged IC50
Description: In this procedure, New Zealand white rabbits were sacrificed using 1/2-1 ml of Beuthanasia-D Special (Schering Plough Animal Health, Keniworth, N.J.: 390 mg pentobarital sodium and 50 mg phenytoin sodium per ml) by injecting the preparation into the marginal ear vein. Whole submaxillary glands, free of blood, were dissected and either used immediately or frozen in cold 100 mM tris-HCl (pH 7.4) buffer. Glandular tissue was rinsed with cold 50 mM Tris-HCl (pH 7.4) followed by homogenization for 30 sec (Polytron, Brinkman Instr., setting 7). The homogenate was centrifuged at 800 rpm for 10 min at 4° C. to remove extraneous tissue. Then the supernatant was centrifuged at 75,000 Xg for 15 min at 4° C. (model L8-55, Preparative Ultracentrifuge, Beckman Instruments, Fullerton, Calif.). Following centrifugation, the pellet was homogenized again in 100 mM tris-HCl buffer and centrifuged at 75,000 Xg for 15 min. […]
Spiperone (25 nM) was added to prevent binding to D2 dopamine, or 5HT2 serotonin receptors. […] The filter along with the adhering precipitate was transferred to a scintillation vial containing 1 mL of tissue solubilizer (Soluene 350, Packard Inst., Downers Grove, Ill.) and 4 mL of scintillation fluid (Budget Solve , Fisher Scientific, Fair Lawn, N.J.) and counted (Beckman LS 3801). […] Specific binding was determined by subtracting NSB from total binding. […]

salivary secretion = experiment: Saliva flow observed after topical dosing of the rabbit eye; assay type: in vivo; details: rabbit eye dosed topically (use as dry eye syndrome treatment)
Excerpt: The observations of effective salivary stimulation actually occurred during use of the most preferred compound wherein N=2, and R and R" are methyl, as dry eye syndrome treatment. […] This led to further investigations of this and other compounds as a means of treating dry mouth associated with, for example, Sjogren's syndrome. The present compound for example could be formulated into a conventional lozenge for a topical application directly in the oral cavity to stimulate saliva flow. Such lozenges can either be made by dissolving the drug in water, adding powdered sugar, flavor and a gum (e.g., 7% powdered acacia) to give sufficient adhesiveness. This type of lozenge is harder than a conventional tablet, but dissolves slowly. The lozenge formulation is made by compressing the formula on a tablet press according to the art.

**Q.** With `Cc1ccccc1NC(=N)Nc1ccccc1C` [3H-DTG] as the compound, how does the Kd (sigma-binding site) read?
**A.** The Kd was 6 ± 1.2 nM.

**Q.** For `CN(Cc1cc(Br)cc(Br)c1N)C1CCCCC1` [bromhexine], which IC50 (sigma receptors) is on record?
**A.** Its IC50 is 690 ± 276 nM.

**Q.** How did the saliva flow (salivary secretion) turn out when `CN(C)CCc1ccccc1` [most preferred compound, N,N-dimethyl-2-phenylethylamine] was run?
**A.** The saliva flow was “copious amounts of saliva flowed from about one half of the rabbits”.
